# {C12NH2} = amino-(CH2)12 linker attached through a phosphate; {C12NH2-P} = aminododecyl phosphate linker; {FITC} = fluorescein isothiocyanate label
# Test system: HepG2 cells
# Assay: Transmembrane transfer of DNA/RNA fragments and drug-delivery precursors into HepG2 cells, laser confocal microscope
# Assay type: cell-based
# Conditions: 4 nmol, X-tremeGENEsiRNA transfection reagent, 6 h, laser confocal microscope (FIG. 11)
# Description: 24 h before transfer, the HepG2 cells in the phase of logarithmic growth were digested with trypsin; a culture medium containing 10% serum was used for adjusting the cell density to 0.5×10^6 cells/mL; and the cells were inoculated again in a cell culture dish of 15 cm and cultured in a culture incubator containing 5% CO2 at 37° C. The cells may be used for experiments when the cell density reaches 60% to 70% 24 h later.
# 4 nmol of the above-mentioned single-stranded or double-stranded DNA/RNA fragments in different sequences and various drug-delivery precursors was added to a sterile centrifuge tube (tube A) of 15 mL, respectively, and uniformly mixed with Opti-MEM in a corresponding volume, with a total volume of 2 mL; the X-tremeGENEsiRNA reagent was shaken gently, and 160 μL of X-tremeGENEsiRNA reagent was mixed with 1.84 mL of Opti-MEM in another tube (tube B); and the solution in the tube A was mixed with the solution in the tube B, the mixture was slightly triturated by a pipette and incubated for 20 min at room temperature.
# 6 mL of RPMI-1640 serum-free culture medium was added to the mixture and mixed uniformly; the primary culture medium in the HepG2 cell culture dish was discarded, and slightly triturated with RPMI-1640 serum-free culture medium once; and then, the mixture was moved into the HepG2-PT cell culture dish, and cultured in a culture incubator containing 5% CO2 at 37° C.
row,Molecule,transfer into cells and positioning in the cells
1,"5-NH2—(CH2)12—PO4-TGGGCTGGCCAAACTGCTG-3′-FITC (DNA, 5' {C12NH2}, 3' {FITC}, backbone not given here)","may be all transferred into cells by X-tremesiRNA, with most of them into the cytoplasm and a few of them into the cell nucleus"
2,5′-NH2—(CH2)2—PO4-A19-3′-FITC [polyA of 19 bp],"may be all transferred into cells by X-tremesiRNA, with most of them into the cytoplasm and a few of them into the cell nucleus"
3,5′-NH2—(CH2)12—PO4-A5-3′-FITC [polyA of 5 bp],"may be all transferred into cells by X-tremesiRNA, with most of them into the cytoplasm and a few of them into the cell nucleus"
4,5′-NH2—(CH2)12—PO4-A38-3′-FITC [polyA of 38 bp],"may be all transferred into cells by X-tremesiRNA, with most of them into the cytoplasm and a few of them into the cell nucleus"
5,"5′-NH2—(CH2)12—PO4TGGGCTGGCCAAACTGCTG-3′-FITC: 5′-CAGCAGTTTGGCCAGCCCA-3′ (chain 1: DNA, 5' {C12NH2-P}, 3' {FITC}, backbone not given here; chain 2: DNA, backbone not given here)","may be all transferred into cells by X-tremesiRNA, with most of them into the cytoplasm and a few of them into the cell nucleus"

# Test system: HepG2 cells
# Assay: not given
# Conditions: original compound 2 linked to the fluorescent tag (FIG. 8A)
row,Molecule,entry into cells
1,"C#CCN(CC1CCN(C(=O)Nc2ccccc2)CC1)c1cccc(-c2sc(C(=O)O)c(OCC(=O)O)c2Br)c1 [compound 2, 4-bromo-3-oxoacetic acid-5-(3-(((1-phenylcarbamoylpiperidine)-4-methyl)-N-propargylamine)phenyl)thiophene-2-formic acid]",can not enter the cells
